Measurements as given in patent US20130085161A1, “PIPERIDINYL SUBSTITUTED 1,3-DIHYDRO-BENZOIMIDAZOL-2-YLIDENEAMINE DERIVATIVES” (NOVARTIS AG, priority 2010, published 2013).

Molecular target: T1, BaF3-Tel-IGF1-R (Homo sapiens, UniProt P08069)
T1 construct: the kinase domain of IGF-1R (aa 976-1367) linked by a Ser-Arg-linker; expressed in transfected cells; host or cells: BaF3 murine proB-cell lymphoma cells, stably transduced
Assay: BaF3 cell viability assay (resazurin), 384-well format
Type: cell-based
Details: 384-well plate format; 48 h incubation; resazurin dye reduction; cell proliferation/viability
From the text: BaF3-Tel-IGF1-R and BaF3-InsR are BaF3 murine proB-cell lymphoma cell derivatives [the BaF3 cell line (also termed Ba/F3) is available from the German Collection of Microorganisms and Cell Cultures (DSMZ), Braunschweig, Germany] that have been rendered IL-3-independent by stable transduction with kinase-activating fusions between human TEL (aa 1-452) and the kinase domain of IGF-1R (aa 976-1367) linked by a Ser-Arg-linker (Boulay et al, Cancer Res 68, 3743-3751, 2008), and a fusion between human TEL (aa 1-337) and the kinase domain (aa 1015-1382) of the Insulin receptor (Melnick J S et al, Proc Natl Acad Sci USA 103, 3153-3158, 2006), respectively. Cells are cultured in RPMI-1640 (Animed #1-14F01-1) supplemented with 2% L-glutamine (Animed #5-10K50-H) and 10% fetal calf serum (FCS, Animed #2-01F16-I). Wild-type, untransfected BaF3 cells are maintained in above medium plus 10 U/ml IL-3 (mouse Interleukin-3, Roche #1380745 or Invitrogen # PMC0035) and are used to identify non-selective, generally growth-inhibitory compounds. Cells (1.5×10^4 cells per well) are seeded in 190 μl fresh medium into 96-well plates. 10 μl 20× compound solutions are added. As internal control, the kinase inhibitor PKC412 is routinely used. Control cells treated with DMSO (0.1% final concentration) serve as growth reference (set as 100% growth). In addition, a plate blank value is routinely determined in a well containing only […] of medium and no cells. IC50 determinations are performed based on eight 3-fold serial dilutions of the test compound, starting at 10 μM. Following incubation of the cells for 48 h at 37° C. and 5% CO2, the effect of inhibitors on cell viability is assessed by the resazurin sodium salt dye reduction assay (commercially known as AlamarBlue assay) basically as previously described (O'Brien J. et al., Eur. J. Biochem. 267: 5421-5426, 2000). Briefly, 20 μl dye solution is added per well and the plates incubated for 6 h at 37° C. and 5% CO2. Thereafter, fluorescence is measured using a Saphirell 96-well plate reader (TECAN, Männedorf, Switzerland) with the following settings: Excitation 544 nm and Emission 590 nm. For data analysis, the plate blank value is subtracted from all data points. The effect of a particular test compound concentration on cell proliferation and viability is expressed as percentage of the blank-corrected reading obtained for cells treated with vehicle only, which is set as 100%. IC50 values can be determined using XLfit (V4.2), applying standard four parameter logistic model #205 (IDBS, Guilford, UK) or other common curve-fitting software.
To achieve a higher throughput, the cell viability assay can also be performed in a 384-well format. Briefly, 4′500 freshly diluted cells are seeded in 54 μl/well into 384-well plates using a liquid dispenser. 6 μl 10× compound solution is added to the cell plate. As internal control, the kinase inhibitor PKC412 is routinely used. Control cells treated with DMSO (0.1% final concentration) serve as growth reference (set as 100% growth). In addition, a plate blank value is routinely determined in a well containing only 60 μl of medium and no cells. Dose-response effects are determined by 3-fold serial compound dilutions, starting at 10 μM. Following incubation of the cells for 48 h at 37° C. and 5% CO2, the effect of compounds on cell proliferation/viability is assessed by addition of 6 μl resazurin sodium salt dye solution per well. Following incubation for an additional 6 hrs at 37° C. and 5% CO2, fluorescence is measured using an Infiniti M1000 microplate reader (TECAN, Männedorf, Switzerland) with excitation and emission wavelengths set at 544 and 590 nm, respectively. For data analysis, the plate blank value is subtracted from all data points. IC50 values can be determined by four parameter logistic fitting as described above.

T1 sequence (P08069 976-1367): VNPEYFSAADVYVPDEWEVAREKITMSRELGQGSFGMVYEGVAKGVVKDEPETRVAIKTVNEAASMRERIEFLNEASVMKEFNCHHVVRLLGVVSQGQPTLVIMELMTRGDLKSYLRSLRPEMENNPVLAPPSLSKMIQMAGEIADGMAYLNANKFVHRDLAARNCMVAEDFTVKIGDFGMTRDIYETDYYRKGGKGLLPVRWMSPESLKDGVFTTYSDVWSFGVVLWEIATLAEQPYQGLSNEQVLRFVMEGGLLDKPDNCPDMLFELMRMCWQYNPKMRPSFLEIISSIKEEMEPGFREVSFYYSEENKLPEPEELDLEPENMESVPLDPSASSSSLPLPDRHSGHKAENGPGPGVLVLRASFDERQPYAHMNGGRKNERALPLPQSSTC

Compound	IC50
CC(=O)Nc1ccc(Cl)cc1N1CCC(n2c(=N)n(Cc3cccc4[nH]ccc34)c3ccc(F)cc32)CC1 [Example 61, N-(4-Chloro-2-{4-[6-fluoro-2-imino-3-(1H-indol-4-ylmethyl)-2,3-dihydro-benzoimidazol-1-yl]-piperidin-1-yl}-phenyl)-acetamide]	8 nM
CC(=O)Nc1ccc(C(F)(F)F)cc1N1CCC(n2c(=N)n(Cc3cccc4[nH]ccc34)c3ccccc32)CC1 [Example 56.3, N-(2-{4-[2-Imino-3-(1H-indol-4-ylmethyl)-2,3-dihydro-benzoimidazol-1-yl]-piperidin-1-yl}-4-trifluoromethyl-phenyl)-acetamide]	52 nM
CC(=O)Nc1ccc(C(F)(F)F)cc1N1CCC(n2c(=N)n(Cc3ccccc3Cl)c3ccc(F)cc32)CC1 [Example 56.17, N-(2-{4-[3-(2-Chloro-benzyl)-6-fluoro-2-imino-2,3-dihydro-benzoimidazol-1-yl]-piperidin-1-yl}-4-trifluoromethyl-phenyl)-acetamide]	38 nM
CC(=O)Nc1ccccc1N1CCC(n2c(=N)n(Cc3ccccc3Cl)c3ccc(F)cc32)CC1 [Example 56.18, N-(2-{4-[3-(2-Chloro-benzyl)-6-fluoro-2-imino-2,3-dihydro-benzoimidazol-1-yl]-piperidin-1-yl}-phenyl)-acetamide]	119 nM
CC(=O)Nc1ccc(Cl)cc1N1CC[C@H](n2c(=N)n(Cc3cccc4[nH]cnc34)c3ccc(F)cc32)[C@@H](O)C1 (racemic) [Example 67.7, Rac-trans-N-(2-{4-[3-(1H-Benzo-imidazol-4-ylmethyl)-6-fluoro-2-imino-2,3-dihydro-benzo-imidazol-1-yl]-3-hydroxy-piperidin-1-yl}-4-chloro-phenyl)-acetamide]	644 nM
CC(=O)Nc1ccc(C)nc1N1CCC(n2c(=N)n(Cc3ccccc3Cl)c3ccc(F)cc32)CC1 [Example 78, N-{4-[3-(2-Chloro-benzyl)-6-fluoro-2-imino-2,3-dihydro-benzoimidazol-1-yl]-6′-methyl-3,4,5,6-tetrahydro-2H-[1,2′]bipyridinyl-3′-yl}-acetamide]	62 nM
CC(=O)Nc1ccc(Cl)cc1N1CC[C@H](n2c(=N)n(Cc3cccc4[nH]ccc34)c3ccccc32)[C@@H](O)C1 (racemic) [Example 67.5, Rac-trans-N-(4-Chloro-2-{3-hydroxy-4-[2-imino-3-(1H-indol-4-ylmethyl)-2,3-dihydro-benzoimidazol-1-yl]-piperidin-1-yl}-phenyl)-acetamide]	30 nM
CC(=O)Nc1ccc(C)cc1N1CCC(n2c(=N)n(Cc3cccc4[nH]ccc34)c3ccc(F)cc32)CC1 [Example 56.15, N-(2-{4-[6-Fluoro-2-imino-3-(1H-indol-4-ylmethyl)-2,3-dihydro-benzoimidazol-1-yl]-piperidin-1-yl}-4-methyl-phenyl)-acetamide]	41 nM
COc1ccc(NC(C)=O)c(N2CCC(n3c(=N)n(Cc4ccccc4Cl)c4ccccc43)CC2)c1 [Example 56.10, N-(2-{4-[3-(2-Chloro-benzyl)-2-imino-2,3-dihydro-benzoimidazol-1-yl]-piperidin-1-yl}-4-methoxy-phenyl)-acetamide]	88 nM
COc1ccc(NC(C)=O)c(N2CCC(n3c(=N)n(Cc4cccc5[nH]ccc45)c4ccccc43)CC2)c1 [Example 56.1, N-(2-{4-[2-Imino-3-(1H-indol-4-ylmethyl)-2,3-dihydro-benzoimidazol-1-yl]-piperidin-1-yl}-4-methoxy-phenyl)-acetamide]	35 nM
CC(=O)Nc1ccc(C#N)cc1N1CCC(n2c(=N)n(Cc3cccc4[nH]ccc34)c3ccc(F)cc32)CC1 [Example 56.11, N-(4-Cyano-2-{4-[6-fluoro-2-imino-3-(1H-indol-4-ylmethyl)-2,3-dihydro-benzoimidazol-1-yl]-piperidin-1-yl}-phenyl)-acetamide]	16 nM
CC(=O)Nc1ccc(Cl)cc1N1CCC(n2c(=N)n(Cc3cccc4[nH]cnc34)c3ccc(F)cc32)CC1 [Example 64, N-(2-{4-[3-(1H-Benzoimidazol-4-ylmethyl)-6-fluoro-2-imino-2,3-dihydro-benzoimidazol-1-yl]-piperidin-1-yl}-4-chloro-phenyl)-acetamide]	163 nM
CC(=O)Nc1ccc(Cl)nc1N1CCC(n2c(=N)n(Cc3ccccc3Cl)c3ccc(F)cc32)CC1 [Example 77, N-{6′-Chloro-4-[3-(2-chloro-benzyl)-6-fluoro-2-imino-2,3-dihydro-benzoimidazol-1-yl]-3,4,5,6-tetrahydro-2H-[1,2′]bipyridinyl-3′-yl}-acetamide]	68 nM
CC(=O)Nc1ccc(Cl)cc1N1CC[C@H](n2c(=N)n(Cc3cccc4[nH]nnc34)c3ccc(F)cc32)[C@@H](O)C1 (racemic) [Example 67.6, Rac-trans-N-(2-{4-[3-(1H-Benzo-triazol-4-ylmethyl)-6-fluoro-2-imino-2,3-dihydro-benzoimidazol-1-yl]-3-hydroxy-piperidin-1-yl}-4-chloro-phenyl)-acetamide]	517 nM
CC(=O)Nc1ccc(Cl)cc1N1CCC(n2c(=N)n(Cc3cccc4[nH]ccc34)c3ccccc32)CC1 [Example 57]	15 nM
CC(=O)Nc1ccc(C)nc1N1CCC(n2c(=N)n(Cc3cccc4[nH]ccc34)c3ccc(F)cc32)CC1 [Example 65, N-{4-[6-Fluoro-2-imino-3-(1H-indol-4-ylmethyl)-2,3-dihydro-benzoimidazol-1-yl]-6′-methyl-3,4,5,6-tetrahydro-2H-[1,2′]bipyridinyl-3′-yl}-acetamide]	5 nM
CC(=O)Nc1ccc(C#N)cc1N1CCC(n2c(=N)n(Cc3ccccc3Cl)c3ccccc32)CC1 [Example 56.9, N-(2-{4-[3-(2-Chloro-benzyl)-2-imino-2,3-dihydro-benzoimidazol-1-yl]-piperidin-1-yl}-4-cyano-phenyl)-acetamide]	82 nM
CC(=O)Nc1ccc(C)nc1N1CC[C@H](n2c(=N)n(Cc3cccc4[nH]ccc34)c3ccc(F)cc32)[C@@H](O)C1 (racemic) [Example 67.3, Rac-trans-N-{4-[6-Fluoro-2-imino-3-(1H-indol-4-yl-methyl)-2,3-dihydro-benzo-imidazol-1-yl]-3-hydroxy-6′-methyl-3,4,5,6-tetrahydro-2H-[1,2′]bipyridinyl-3′-yl}-acetamide]	167 nM
CC(=O)Nc1ccc(C)cc1N1CCC(n2c(=N)n(Cc3ccccc3Cl)c3ccccc32)CC1 [Example 56.5, N-(2-{4-[3-(2-Chloro-benzyl)-2-imino-2,3-dihydro-benzoimidazol-1-yl]-piperidin-1-yl}-4-methyl-phenyl)-acetamide]	51 nM
CC(=O)Nc1ccc(C)cc1N1CCC(n2c(=N)n(Cc3cccc4[nH]ccc34)c3ccccc32)CC1 [Example 56, N-(2-{4-[2-Imino-3-(1H-indol-4-ylmethyl)-2,3-dihydro-benzoimidazol-1-yl]-piperidin-1-yl}-4-methyl-phenyl)acetamide]	< 4.5 nM
CC(=O)Nc1ccc(Cl)cc1N1CCC(n2c(=N)n(Cc3cccc4[nH]nnc34)c3ccccc32)CC1 [Example 60, N-(2-{4-[3-(1H-Benzotriazol-4-ylmethyl)-2-imino-2,3-dihydro-benzoimidazol-1-yl]-piperidin-1-yl}-4-chloro-phenyl)-acetamide]	64 nM
CC(=O)/N=c1\n(Cc2cccc3[nH]ccc23)c2ccccc2n1C1CCN(c2cc(C)ccc2NC(C)=O)CC1 [Example 66, N-(2-{4-[2-Acetylimino-3-(1H-indol-4-ylmethyl)-2,3-dihydro-benzoimidazol-1-yl]-piperidin-1-yl}-4-methyl-phenyl)-acetamide]	180 nM
